These results are taken from patent publication US4761415A, “Dopamine-β-hydroxylase inhibitors” (SmithKline Beckman Corporation, priority 1986, dated 1988).

Structures can show the parent of a compound that is named as a salt. A value given as a limit tells only on which side of the number the result lay.

What is called IC50 is the concentration that inhibits the measured activity by half.

A short description of data set [1]: inhibition of cytochrome P450-dependent mixed function oxidase catalyzed deethylation of ethoxycoumarin. Format: in vitro ADME. The following applies: read-out: P-450 IC50. As for the experimental part:
The compounds listed in Table I also were evaluated for their ability to inhibit cytochrome P450-dependent mixed function oxidase catalyzed deethylation of ethoxycoumarin by the procedure of […] and Poland, J. Pharmacol. Exp. Ther., 205, 596-605 (1978).

In data set [2] the target is T1, dopamine-β-hydroxylase (DBH) (Bos taurus, UniProt P15101).
T1 sequence (P15101 1-610): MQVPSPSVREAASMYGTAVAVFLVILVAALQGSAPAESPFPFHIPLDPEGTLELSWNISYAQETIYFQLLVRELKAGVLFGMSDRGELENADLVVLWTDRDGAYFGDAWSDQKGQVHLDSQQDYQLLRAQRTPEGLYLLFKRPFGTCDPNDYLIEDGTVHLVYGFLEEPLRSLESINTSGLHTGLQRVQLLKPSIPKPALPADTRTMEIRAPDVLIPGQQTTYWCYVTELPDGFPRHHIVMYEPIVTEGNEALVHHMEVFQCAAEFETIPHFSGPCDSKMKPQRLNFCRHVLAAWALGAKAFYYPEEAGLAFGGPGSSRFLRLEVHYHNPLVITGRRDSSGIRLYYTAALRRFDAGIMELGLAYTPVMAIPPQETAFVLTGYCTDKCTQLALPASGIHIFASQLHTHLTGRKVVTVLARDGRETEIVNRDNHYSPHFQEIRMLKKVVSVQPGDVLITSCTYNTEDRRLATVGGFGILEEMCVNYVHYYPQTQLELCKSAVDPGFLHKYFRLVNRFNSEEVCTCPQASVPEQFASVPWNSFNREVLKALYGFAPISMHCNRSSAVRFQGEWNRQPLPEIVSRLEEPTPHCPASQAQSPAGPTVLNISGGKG
Kind of data set: biochemical. The following applies: molar concentration at which DBH activity was halved. As for the experimental part:
J. J. Pisano, et al., Biochim. Biophys. Acta, 43, 566-568 (1960). Octopamine was assayed following sodium periodate oxidation to p-hydroxybenzaldehyde by measuring spectrophotometric absorbance at 330 nm.

The subject of data set [3] is DBH. The following applies: cited from earlier work.
The conditions of data set [4]: Ehrreich et al., 1976; cited from earlier work.
In data set [5] the test system is spontaneously hypertensive rats. Kind of data set: mean arterial blood pressure in spontaneously hypertensive rats. Format: in vivo, rat. Particulars: 50 mg/kg intraperitoneally; for time to significant blood pressure reduction following treatment / blood pressure reduction (in words): compared to vehicle-treated controls; for blood pressure reduction (in words): within 30 minutes; for maximal blood pressure reduction: monitored for 260 minutes, indwelling cannulae in tail arteries. As for the experimental part:
Further, spontaneously hypertensive rats were treated with a suspension or solution of 3-mercapto-4-benzyl-5-[(4-methyl-piperazinyl)methyl]-1,2,4-triazole or 3-mercapto-4-(3-fluorobenzyl)-5[(4-methyl-1-piperazinyl)methyl]-1,2,4-triazole at a dose of 50 mg/kg intraperitoneally, and mean arterial blood pressure was monitored for 260 minutes using indwelling cannulae in the tail arteries. […] The maximal blood pressure reductions were approximately 25 and 40 mmHg, respectively, for each of the administered compounds.

The conditions of data set [6]: Teresawa et al., Japan. Cir. J. 35, 339 (1971); cited from earlier work.

`Fc1cc(F)cc(Cn2ccnc2S)c1` [1-(3,5-difluorobenzyl)-2-mercapto imidazole, reference compound]: the 50% inhibitory concentration (IC50) in data set [1] stood at 12 µM; in data set [2] it was 1.2 µM.
Consider `CN1CCN(Cc2nnc(S)n2Cc2ccccc2)CC1` [3-mercapto-4-benzyl-5-[(4-methyl-1-piperazinyl)methyl]-1,2,4-triazole hydrochloride], for which the IC50 in data set [1] turned out to be 700 µM; in data set [2], 90 µM.
With `O=C(O)c1ccc(CCC(Br)CBr)cn1` (stereo not shown) [5-(3,4-dibromobutyl)picolinic acid], the “DBH inhibition (in words, literature)” value in data set [3] is recorded as “DBH inhibitors”.
Turning to `O=C(O)c1ccc(CCCCCl)cn1` [5-(4-chlorobutyl) picolinic acid], the “DBH inhibition (in words, literature)” value in data set [3] is “inhibit DBH”.
As for `CN(C)C(=S)SCc1ccc(C(=O)O)nc1` [5-(dimethyldithiocarbamoylmethyl)picolinic acid], the “DBH inhibition (in words, literature)” value in data set [3] was “DBH inhibitors”.
Regarding `NOCc1ccccc1` [Benzyloxyamine, benzyloxyamine], in data set [3], the “DBH inhibition (in words, literature)” value is “apparently act as competitive inhibitors”.
In the case of `CCCCc1ccc(C(N)=O)nc1` [Bupicomide, 5-(n-butyl)picolinamine], the antihypertensive activity entry in data set [4] is “has antihypertensive activity”. For the same compound, the “DBH inhibition (in words, literature)” value in data set [3] is on record as “DBH inhibitor”.
Turning to `CN1CCN(Cc2nnc(S)n2Cc2ccccc2)CC1` [Example 1, 3-Mercapto-4-benzyl-5-[(4-methyl-1-piperazinyl)methyl]-1,2,4-triazole], in data set [5], the “time to significant blood pressure reduction following treatment” value was at most 30 min, the “blood pressure reduction (in words)” value was “significant blood pressure reductions” and the “maximal blood pressure reduction” value is “approximately 25 mmHg”.
Take `CN1CCN(Cc2nnc(S)n2Cc2cccc(F)c2)CC1` [Example 2, 3-Mercapto-4-(3-fluorobenzyl)-5-[(4-methyl-1-piperazinyl)methyl]-1,2,4-triazole]: in data set [1], the IC50 was 375 µM. Also, in data set [5], the “time to significant blood pressure reduction following treatment” value was at most 30 min, the “blood pressure reduction (in words)” value is reported as “significant blood pressure reductions” and the “maximal blood pressure reduction” value was about 40 mmHg. 60 µM corresponded to half-maximal inhibition in data set [2] (IC50).
`CN1CCN(Cc2nnc(S)n2Cc2cc(F)cc(F)c2)CC1` [Example 3, 3-Mercapto-4-(3,5-difluorobenzyl)-5-[(4-methyl-1-piperazinyl)methyl]-1,2,4-triazole]: the IC50 was found to be 350 µM in data set [1] and 50 µM in data set [2].
Take `CCCCc1ccc(C(=O)O)nc1` [Fusaric acid]: the hepatotoxicity entry in data set [6] is recorded as “hepatotoxic”.
Consider `NNCc1ccccc1` [benzylhydrazine], for which the “DBH inhibition (in words, literature)” value in data set [3] is on record as “apparently act as competitive inhibitors”.
